The source of these data is US20260232710A1, “AGENTS, COMPOSITIONS, AND METHODS FOR SUPPORTING BEHAVIOURAL DEVELOPMENT” (SOCIÉTÉ DES PRODUITS NESTLÉ S.A., priority 2023, published 2026).

The experiment concerns human breast milk-fed infants. Kind of experiment: Regression association of breast milk HMO levels with IBQ-R negative affectivity in infants. The class given is in vivo. The protocol:
In some embodiments, social-emotional skills are determined by an Infant Behavior Questionnaire (IBQ), such as the IBQ-Revised (IBQ-R). The “IBQ-R (revised Infant Behavior Questionnaire) questionnaire” is a widely used parent-report measure for assessing dimensions of temperament along 14 scales, as reported below, in infants between 3 and 12 months of age (see e.g. Gartstein, M. A. and Rothbart, M. K., 2003. Infant behavior and development, 26(1), pp. 64-86).
The subject's negative affectivity can be determined by any suitable method. In some embodiments, the subject's negative affectivity is determined by an Infant Behavior Questionnaire (IBQ), for example the IBQ-Revised (IBQ-R). For example, negative affectivity may be a domain constructed out of the following scales on the IBQ-R: sadness, fear, distress to limitations, activity level, and falling reactivity. The one or more HMOs according to the present invention may reduce sadness, fear, and/or distress to limitations. The one or more HMOs according to the present invention may improve activity level and/or rate of recovery from distress.
A total of 195 infants were tested. Breastmilk HMO levels were tested in breastmilk collected at two months and three months. Infant behaviours were assessed with an Infant Behaviour Questionnaire-Revised (IBQ-R). […]

Lacto-N-difucohexaose I [LNDFHI]: the IBQR entry (breast milk collected at 2 months, negative affectivity of infants at 9 months, N=195) is “Reduced”. Further, the “association with negative emotions in infants” value (infants at 9 months, breast milk HMO levels) was “associated with reduction in negative emotions”.
